From patent US20260094676A1, “METHOD AND APPARATUS FOR PREDICTING DRUG BIOAVAILABILITY” (LIVERPOOL JOHN MOORES UNIVERSITY, priority 2022, published 2026)
Counter-ions that a name gives are not always drawn. Like-named read-outs stand apart in the source and are kept apart here.

Legend:
[1] = Reversed phase TLC lipophilicity measurement on Leucaena oil device (LOD); settings: for ICHI (isocratic chromatographic hydrophobicity index): LOD R1 to R10, methanol in water mobile phase
Experimental: Silica gel GF254 plates (5×10 cm) are successively developed by ascending development in the oil solution. Ten consecutive runs were carried out in each of the six tanks set up to prepare the Leucaena oil device (LOD).
The plates were air-dried at room temperature and the plates were developed in saturated development tanks containing 10 mL of the mobile phase. The plates were developed over a path of 7 cm and allowed to air-dry before visualization under UV light at 254 nm. The retardation factor (Rf) was then measured. The development was performed in duplicate.
Rm was computed by the equation: […]
The linear regression of Rm versus organic modifier fraction is governed by the Soczewinski Wachmeister equation: […]
The mobile phase used consisted of various concentrations of methanol in 0.1N HCl and Phosphate buffer pH 6.8.
(§1) Data analysis was done as previously described, Rf was transformed to Rm and linear regression analysis implemented to determine the lipophilicity parameter, ICHI.
(§2) Data analysis was performed as described earlier under data analysis in previous sections. Rf is transformed to Rm and linear regression of Rm versus methanol fraction produces linear regression parameters that provide the lipophilicity metric.

[2] = Experimental: The mobile phase used consisted of various concentrations of methanol in 0.1N HCl and phosphate buffer pH 6.8.
as §1, §2

[3] = 48 h
[4] = humans, cited from earlier work
[5] = dogs, cited from earlier work
[6] = concomitant intake of kolanut with halofantrine; cited from earlier work
[7] = cited from earlier work
[8] = halofantrine administered postprandially

## O=C(O)c1cn(C2CC2)c2cc(N3CCNCC3)c(F)cc2c1=O [ciprofloxacin hydrochloride]
[1]; LOD, combination with model Garcinia bioflavonoid
  Qsi: about 10

## COc1ccc2cc(CCC(C)=O)ccc2c1 [nabumetone]
[1]
  ICHI (isocratic chromatographic hydrophobicity index): 0.61-0.63

## Oc1ccc2ccccc2c1 [β-naphthol]
[1]
  ICHI (isocratic chromatographic hydrophobicity index): 0.46-0.48

## CC(=O)N1CCN(c2ccc(OCC3COC(Cn4ccnc4)(c4ccc(Cl)cc4Cl)O3)cc2)CC1 (stereo not drawn) [ketoconazole]
[2]
  Lipophilicity classification based on ICHI: lipophilic
[2]; ODS, mean over 0.1N HCl and phosphate buffer pH 6.8 mobile phases
  ICHI, mean value: 0.86
[1]
  Lipophilicity classification based on ICHI: amphiphilic
[1]; LOD, mean over 0.1N HCl and phosphate buffer pH 6.8 mobile phases
  ICHI, mean value: 0.70
[3]
  critical point ('critical micellar concentration') of ketoconazole for halofantrine solubility: 0.015%

## CCCCNCCC(O)c1cc2c(Cl)cc(Cl)cc2c2cc(C(F)(F)F)ccc12 (stereo not drawn) [desbutylhalofantrine]
[4]; [8]
  decrease of proportional formation of desbutyl metabolite: 2.4 fold
[5]; [8]
  decrease of proportional formation of desbutyl metabolite: 6.8 fold
[6]
  Cmax, effect of concomitant kolanut: significantly decreased
  t1/2, effect of concomitant kolanut: no significant effect
  tmax, effect of concomitant kolanut: no significant effect

## Oc1cccc2ccccc12 [α-naphthol]
[1]
  ICHI (isocratic chromatographic hydrophobicity index): 0.52-0.54

## CCCCN(CCCC)CCC(O)c1cc2c(Cl)cc(Cl)cc2c2cc(C(F)(F)F)ccc12 (stereo not drawn) [halofantrine]
[4]; administered postprandially
  increase of oral bioavailability: 3 fold
[7]; fasted oral administration of Hf with ketoconazole
  plasma Hfm/Hf AUC (0-72 h) ratio: less than 0.05
[7]; fasted oral administration of Hf without ketoconazole
  plasma Hfm/Hf AUC (0-72 h) ratio: 0.56
[2]; ODS, halofantrine versus caffeine
  Solubility interaction quotient (Qsi), fold more lipophilic than caffeine: 2 fold
[1]; LOD, halofantrine versus caffeine
  Solubility interaction quotient (Qsi), fold more lipophilic than caffeine: 24 fold
[1]; LOD, ketoconazole and halofantrine
  Qsi: 1.42
[5]; administered postprandially
  increase of oral bioavailability: 12 fold
[6]
  Cmax, effect of concomitant kolanut: significantly decreased
  t1/2, effect of concomitant kolanut: no significant effect
  tmax, effect of concomitant kolanut: no significant effect
